This is an account of results in paper PMC4316997, “Complex Structure and Biochemical Characterization of the Staphylococcus aureus Cyclic Diadenylate Monophosphate (c-di-AMP)-binding Protein PstA, the Founding Member of a New Signal Transduction Protein Family” (The Journal of Biological Chemistry, 2014).

Assay [1] has as its target T1, PstA (PstASA, His-PstASA) (Staphylococcus aureus, UniProt A0A0H2XH20, R67A).
T1 construct: gene SAUSA300_0460
Description: biochemical.

For assay [2], the target named is T2, PstA (PstASA, His-PstASA) (Staphylococcus aureus, UniProt A0A0H2XH20, D12A).
T2 construct: gene SAUSA300_0460
Description: biochemical.

The target in assay [3] is T3, PstA (PstASA, His-PstASA) (Staphylococcus aureus, UniProt A0A0H2XH20, T43A).
T3 construct: gene SAUSA300_0460
The experiment in a line: biochemical.

The target of assay [4] is T4, PstA (PstASA, His-PstASA) (Staphylococcus aureus, UniProt A0A0H2XH20, K2A).
T4 construct: gene SAUSA300_0460
Description: biochemical.

The target in assay [5] is T5, PstA (PstASA, His-PstASA) (Staphylococcus aureus, UniProt A0A0H2XH20, N41A).
T5 construct: gene SAUSA300_0460
The experiment in a line: biochemical.

The target of assay [6] is T6, PstA (PstASA, His-PstASA) (Staphylococcus aureus, UniProt A0A0H2XH20).
T6 construct: gene SAUSA300_0460; sites at monomer-monomer interfaces
Description: DRaCALA, purified protein, […]-labelled ligand on nitrocellulose. The assay is classed as binding.

In assay [7] the target is N-terminally His-tagged PstA protein from S. aureus (His-PstASA) (S. aureus). Description: SEC-MALS; 100 uM purified His-PstASA in 50 mM Tris-HCl pH 7.5, 200 mM NaCl, 5% glycerol; Superdex 10/300 column coupled to a multiangle laser light scattering detector.

As usually defined, the Kd is the concentration at which binding is half-saturated. Higher therefore signals lower affinity. In the case of `Nc1ncnc2c1ncn2[C@@H]1O[C@@H]2COP(=O)(O)O[C@H]3[C@@H](O)[C@H](n4cnc5c(N)ncnc54)O[C@@H]3COP(=O)(O)O[C@H]2[C@H]1O` [c-di-AMP], the Kd came to 0.48 ± 0.04 µM in assay [1]; 0.32 ± 0.05 µM in assay [2]; 1.8 ± 0.2 µM in assay [3]; 0.34 ± 0.04 µM in assay [4]; 9.6 ± 2.3 µM in assay [5]; 0.37 ± 0.03 µM in assay [6].
A word on the stoichiometry N: it is a count of units in the complex or per binding partner. In assay [7], “N-terminally His-tagged PstA protein from S. aureus (His-PstASA) (natural protein)” came in with a stoichiometry N of 3.
